Common to all, as to type: binding
What all share (parameters): key: No binding of immunoglobulin for the defined peptide variant, detection negative: 0; Binding of immunoglobulin for the defined peptide variant, detection positive: +

Assay [1] has as its system immunoglobulins in human plasma. The experiment in a line: Cellulose-immobilized 13-mer peptide variants incubated with human plasma, anti-human IgG-AP detection. The conditions noted are these: human plasma as sample, diluted 1:10,000 in blocking buffer, 3 h room temperature. The method in brief:
(§1)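 SPOT-type 13-mer peptides on cellulose with a (βA)(βA) spacer, blocked in 5% saccharose/4% BSA in T-TBS pH 8.0. Incubated 3 h at RT with human IgG-Fc (1 μg/ml) or human serum/plasma (1:10,000), or with blocking buffer alone as the albumin specificity control. Bound IgG detected with AP-anti-human IgG (1.2 μg/ml) and NBT/BCIP colorimetric development at pH 9.5.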

A further assay concerns human IgG-Fc. The experiment in a line: Cellulose-immobilized 13-mer peptide variants incubated with human IgG-Fc, anti-human IgG-AP detection. The conditions noted are these: IgG-Fc 1 μg/ml in blocking buffer, 3 h room temperature. The method in brief:
as §1

The subject of another assay is serum albumin. The experiment in a line: Cellulose-immobilized 13-mer peptide variants incubated with serum albumin (negative control), anti-human IgG-AP detection. The conditions noted are these: blocking buffer without addition, 3 h room temperature. The method in brief: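 Membrane-bound peptides, spaced by two β-alanines, are probed with 1 μg/ml IgG-Fc or 1:10,000 serum for 3 h at room temperature; blocking buffer alone acts as control. Detection uses anti-human IgG-AP (1.2 μg/ml) and NBT/BCIP.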

Bridge positions count the residues as written; N and C are the ends. Square brackets hold non-standard residues; d marks the D form. Ends that are not written are not given here. cellulose = not defined here; βAla = NCCC(=O)O

In the case of “01S: cellulose-bound 13-mer variant SCAWHLGELVWCT-(βA)(βA) (SCAWHLGELVWCT-{βAla-βAla-cellulose}; disulfide 2-12 (inferred); reading uncertain; also: printed as SCAWHLGELVWCT-(βA)(βA))”, the “Result for incubation with human plasma (immunoglobulin binding detection)” value (from here on “Result for incubation with human plasma”) in assay [1] was determined as 0. In addition, in the assay on human IgG-Fc, the “Result for incubation with human IgG-Fc (immunoglobulin binding detection)” value (from here on “Result for incubation with human IgG-Fc”) is “+”. The “Result for incubation with serum albumin (immunoglobulin binding detection)” value (from here on “Result for incubation with serum albumin”) in the assay with serum albumin is given as 0.
For “01A: cellulose-bound 13-mer variant ACAWHLGELVWCT-(βA)(βA) (ACAWHLGELVWCT-{βAla-βAla-cellulose}; disulfide 2-12 (inferred); reading uncertain; also: printed as ACAWHLGELVWCT-(βA)(βA))”, the “Result for incubation with human plasma” value in assay [1] is “+”. The “Result for incubation with human IgG-Fc” value in the assay on human IgG-Fc is “+”. Further, the “Result for incubation with serum albumin” value in the assay with serum albumin worked out at 0.
As to “01V: cellulose-bound 13-mer variant VCAWHLGELVWCT-(βA)(βA) (VCAWHLGELVWCT-{βAla-βAla-cellulose}; disulfide 2-12 (inferred); reading uncertain; also: printed as VCAWHLGELVWCT-(βA)(βA))”, the “Result for incubation with human plasma” value in assay [1] amounted to 0. For the same substance, the “Result for incubation with human IgG-Fc” value with human IgG-Fc turned out to be 0. Further, the “Result for incubation with serum albumin” value in the assay with serum albumin was 0.
Turning to “11E: cellulose-bound 13-mer variant DCAWHLGELVECT-(βA)(βA) (DCAWHLGELVECT-{βAla-βAla-cellulose}; disulfide 2-12 (inferred); reading uncertain; also: printed as DCAWHLGELVECT-(βA)(βA))”, the “Result for incubation with human plasma” value in assay [1] is reported as 0. The “Result for incubation with human IgG-Fc” value in the assay with human IgG-Fc amounted to 0. In addition, the “Result for incubation with serum albumin” value in the assay on serum albumin is on record as 0.
“03L: cellulose-bound 13-mer variant DCLWHLGELVWCT-(βA)(βA) (DCLWHLGELVWCT-{βAla-βAla-cellulose}; disulfide 2-12 (inferred); reading uncertain; also: printed as DCLWHLGELVWCT-(βA)(βA))”: in assay [1], the “Result for incubation with human plasma” value is given as 0. In addition, in the assay on human IgG-Fc, the “Result for incubation with human IgG-Fc” value was determined as 0. Besides, in the assay on serum albumin, the “Result for incubation with serum albumin” value worked out at 0.
Take “12I: cellulose-bound 13-mer variant DCAWHLGELVWIT-(βA)(βA) (DCAWHLGELVWIT-{βAla-βAla-cellulose}; not fully specified; printed as DCAWHLGELVWIT-(βA)(βA); reading uncertain)”: the “Result for incubation with human plasma” value in assay [1] was 0. The “Result for incubation with human IgG-Fc” value with human IgG-Fc turned out to be 0. Also, the “Result for incubation with serum albumin” value in the assay with serum albumin amounted to 0.
Regarding “03Q: cellulose-bound 13-mer variant DCQWHLGELVWCT-(βA)(βA) (DCQWHLGELVWCT-{βAla-βAla-cellulose}; disulfide 2-12 (inferred); reading uncertain; also: printed as DCQWHLGELVWCT-(βA)(βA))”, the “Result for incubation with human plasma” value in assay [1] came to 0. Also, the “Result for incubation with human IgG-Fc” value in the assay on human IgG-Fc is listed as “+”. In addition, the “Result for incubation with serum albumin” value in the assay with serum albumin was determined as 0.
On to “06E: cellulose-bound 13-mer variant DCAWHEGELVWCT-(βA)(βA) (DCAWHEGELVWCT[βAla][βAla]; disulfide 2-12 (inferred); not fully specified (N-terminus); printed as DCAWHEGELVWCT-(βA)(βA); also: cellulose-bound)”, for which the “Result for incubation with human plasma” value in assay [1] came to 0. Also, the “Result for incubation with human IgG-Fc” value in the assay with human IgG-Fc is recorded as “+”. For the same substance, the “Result for incubation with serum albumin” value with serum albumin came out at 0.
Take “03M: cellulose-bound 13-mer variant DCMWHLGELVWCT-(βA)(βA) (DCMWHLGELVWCT-{βAla-βAla-cellulose}; disulfide 2-12 (inferred); reading uncertain; also: printed as DCMWHLGELVWCT-(βA)(βA))”: the “Result for incubation with human plasma” value in assay [1] is 0. Also, the “Result for incubation with human IgG-Fc” value in the assay with human IgG-Fc was determined as 0. For the same substance, the “Result for incubation with serum albumin” value with serum albumin stood at 0.
Turning to “07A: cellulose-bound 13-mer variant DCAWHLAELVWCT-(βA)(βA) (DCAWHLAELVWCT-{βAla-βAla-cellulose}; disulfide 2-12 (inferred); not fully specified (N-terminus); printed as DCAWHLAELVWCT-(βA)(βA); reading uncertain)”, in assay [1], the “Result for incubation with human plasma” value stood at 0. Also, the “Result for incubation with human IgG-Fc” value in the assay with human IgG-Fc worked out at 0. Besides, the “Result for incubation with serum albumin” value in the assay with serum albumin turned out to be 0.
For the substance “10P: cellulose-bound 13-mer variant DCAWHLGELPWCT-(βA)(βA) (DCAWHLGELPWCT-{βAla-βAla-cellulose}; disulfide 2-12 (inferred); reading uncertain; also: printed as DCAWHLGELPWCT-(βA)(βA))”, in assay [1], the “Result for incubation with human plasma” value is listed as 0. For the same substance, the “Result for incubation with human IgG-Fc” value in the assay with human IgG-Fc turned out to be 0. Besides, the “Result for incubation with serum albumin” value in the assay with serum albumin came to 0.
In the case of “09G: cellulose-bound 13-mer variant DCAWHLGEGVWCT-(βA)(βA) (DCAWHLGEGVWCT-{βAla-βAla-cellulose}; disulfide 2-12 (inferred); reading uncertain; also: printed as DCAWHLGEGVWCT-(βA)(βA))”, the “Result for incubation with human plasma” value in assay [1] is given as 0. Also, the “Result for incubation with human IgG-Fc” value with human IgG-Fc worked out at 0. In the assay on serum albumin, the “Result for incubation with serum albumin” value is recorded as 0.
Turning to “10D: cellulose-bound 13-mer variant DCAWHLGELDWCT-(βA)(βA) (DCAWHLGELDWCT-{βAla-βAla-cellulose}; disulfide 2-12 (inferred); reading uncertain; also: printed as DCAWHLGELDWCT-(βA)(βA))”, the “Result for incubation with human plasma” value in assay [1] is 0. Moreover, the “Result for incubation with human IgG-Fc” value with human IgG-Fc worked out at 0. For the same substance, the “Result for incubation with serum albumin” value in the assay with serum albumin turned out to be 0.
Turning to “12K: cellulose-bound 13-mer variant DCAWHLGELVWKT-(βA)(βA) (DCAWHLGELVWKT-{βAla-βAla-cellulose}; not fully specified; printed as DCAWHLGELVWKT-(βA)(βA); reading uncertain)”, the “Result for incubation with human plasma” value in assay [1] came out at 0. For the same substance, the “Result for incubation with human IgG-Fc” value in the assay on human IgG-Fc is listed as 0. For the same substance, the “Result for incubation with serum albumin” value in the assay with serum albumin is 0.
Regarding “03K: cellulose-bound 13-mer variant DCKWHLGELVWCT-(βA)(βA) (DCKWHLGELVWCT-{βAla-βAla-cellulose}; disulfide 2-12 (inferred); reading uncertain; also: printed as DCKWHLGELVWCT-(βA)(βA))”, in assay [1], the “Result for incubation with human plasma” value was 0. Moreover, the “Result for incubation with human IgG-Fc” value in the assay with human IgG-Fc is on record as “+”. In the assay with serum albumin, the “Result for incubation with serum albumin” value is reported as 0.

The record behind these values is patent US7205382B2, “Peptides, the production and use thereof for binding immunoglobulins” (Fresenius Medical Care Affina GmbH, priority 2000, dated 2007).
